Reference: US12428408B2, “Fused heterocyclic mescaline derivatives” (Enveric Biosciences Canada Inc., priority 2022, dated 2025)
Where two headings read alike, the source gives them in different places.

Columns and labels:
5-HT1A receptor [1] = biological target: T1, 5-HT1A receptor (Homo sapiens, UniProt P08908); test: 5-HT1A receptor radioligand competition assay (SPA); type: binding; settings: competition with 0.5 nM 8-hydroxy-DPAT [3H]; test compound 3 nM to 1 mM; read-out: 5-HT1A, Ki
T1 construct: purchased Perkin Elmer 6110501400UA
T1 sequence (P08908 1-422): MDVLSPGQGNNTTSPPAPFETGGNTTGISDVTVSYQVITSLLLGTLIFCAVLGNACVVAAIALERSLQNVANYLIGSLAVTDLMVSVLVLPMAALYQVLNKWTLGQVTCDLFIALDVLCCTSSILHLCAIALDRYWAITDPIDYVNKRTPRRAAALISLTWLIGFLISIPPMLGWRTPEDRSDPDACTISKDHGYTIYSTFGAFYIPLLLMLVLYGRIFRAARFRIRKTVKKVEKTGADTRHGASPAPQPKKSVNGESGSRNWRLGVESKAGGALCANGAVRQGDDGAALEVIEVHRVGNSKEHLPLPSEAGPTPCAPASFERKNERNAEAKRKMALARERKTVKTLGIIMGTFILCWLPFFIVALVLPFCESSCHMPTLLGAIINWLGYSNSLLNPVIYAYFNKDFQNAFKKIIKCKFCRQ

5-HT1A receptor [2] = biological target: T1, 5-HT1A receptor; test: Functional 5-HT1A receptor cAMP assay in CHO-K1/5-HT1A/Gα15 cells; type: cell-based; settings: for 5-HT1A receptor engagement (change in cAMP levels), in words: +5-HT1A cells, 4 μM forskolin, FIGS. 37B-37H
[3] = biological target: T2, human serotonin transporter (SERT) (Homo sapiens, UniProt P31645); test: biochemical; type: binding
T2 construct: purchased PerkinElmer RBHSTM400UA
T2 sequence (P31645 whole entry): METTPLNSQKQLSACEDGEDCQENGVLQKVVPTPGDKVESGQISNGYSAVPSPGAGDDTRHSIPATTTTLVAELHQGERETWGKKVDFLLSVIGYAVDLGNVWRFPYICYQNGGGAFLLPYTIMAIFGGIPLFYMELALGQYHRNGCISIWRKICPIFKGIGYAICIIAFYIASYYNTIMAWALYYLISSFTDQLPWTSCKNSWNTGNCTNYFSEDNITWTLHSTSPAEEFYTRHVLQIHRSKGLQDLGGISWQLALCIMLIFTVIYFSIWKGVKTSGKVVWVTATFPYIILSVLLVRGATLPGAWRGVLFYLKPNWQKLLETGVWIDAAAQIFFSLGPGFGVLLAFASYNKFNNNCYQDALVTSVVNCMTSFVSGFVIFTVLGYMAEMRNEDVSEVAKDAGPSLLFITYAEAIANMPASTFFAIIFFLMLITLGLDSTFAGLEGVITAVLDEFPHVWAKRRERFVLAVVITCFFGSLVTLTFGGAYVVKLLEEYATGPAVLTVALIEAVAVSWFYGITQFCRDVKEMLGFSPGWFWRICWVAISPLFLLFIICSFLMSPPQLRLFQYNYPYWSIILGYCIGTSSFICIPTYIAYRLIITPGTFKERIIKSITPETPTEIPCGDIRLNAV

5-HT1B (h) = biological target: T3, 5-HT1B (h) (Homo sapiens, UniProt P28222); test: Competition assay to measure binding affinity at 5-HT1B receptor; settings: test ligand 10 μM; [3H]GR125743 1 nM
T3 construct: host or cells: Chem-1 (RBL) cells
T3 sequence (P28222 whole entry): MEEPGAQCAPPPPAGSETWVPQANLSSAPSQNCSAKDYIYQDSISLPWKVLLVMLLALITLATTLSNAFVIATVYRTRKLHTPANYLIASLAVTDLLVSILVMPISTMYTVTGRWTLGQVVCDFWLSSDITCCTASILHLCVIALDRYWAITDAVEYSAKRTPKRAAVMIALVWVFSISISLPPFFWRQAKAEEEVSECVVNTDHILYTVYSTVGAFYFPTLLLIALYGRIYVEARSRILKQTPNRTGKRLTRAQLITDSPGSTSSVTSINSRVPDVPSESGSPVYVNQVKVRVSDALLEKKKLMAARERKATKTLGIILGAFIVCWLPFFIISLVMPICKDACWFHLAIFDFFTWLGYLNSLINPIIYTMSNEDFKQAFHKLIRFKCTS

5-HT1D (r) = biological target: T4, 5-HT1D (r) (Rattus norvegicus, UniProt P28565); test: Competition assay to measure binding affinity at 5-HT1D receptor; settings: test ligand 10 μM; [3H]serotonin 1 nM
T4 construct: host or cells: CHO cells
T4 sequence (P28565 whole entry): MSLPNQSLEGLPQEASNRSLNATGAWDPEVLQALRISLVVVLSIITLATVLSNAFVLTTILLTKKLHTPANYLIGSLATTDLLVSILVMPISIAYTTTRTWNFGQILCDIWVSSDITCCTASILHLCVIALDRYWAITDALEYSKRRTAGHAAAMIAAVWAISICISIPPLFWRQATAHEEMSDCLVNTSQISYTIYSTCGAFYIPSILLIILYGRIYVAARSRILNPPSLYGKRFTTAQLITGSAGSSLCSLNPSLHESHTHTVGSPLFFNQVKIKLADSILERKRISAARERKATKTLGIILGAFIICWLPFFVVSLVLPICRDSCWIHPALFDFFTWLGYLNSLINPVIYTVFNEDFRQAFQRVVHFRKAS

5-HT2B (h) = biological target: T5, 5-HT2B (h) (Homo sapiens, UniProt P41595); test: Competition assay to measure binding affinity at 5-HT2B receptor; settings: test ligand 10 μM; [3H]mesulergine 2 nM
T5 construct: host or cells: CHO cells
T5 sequence (P41595 whole entry): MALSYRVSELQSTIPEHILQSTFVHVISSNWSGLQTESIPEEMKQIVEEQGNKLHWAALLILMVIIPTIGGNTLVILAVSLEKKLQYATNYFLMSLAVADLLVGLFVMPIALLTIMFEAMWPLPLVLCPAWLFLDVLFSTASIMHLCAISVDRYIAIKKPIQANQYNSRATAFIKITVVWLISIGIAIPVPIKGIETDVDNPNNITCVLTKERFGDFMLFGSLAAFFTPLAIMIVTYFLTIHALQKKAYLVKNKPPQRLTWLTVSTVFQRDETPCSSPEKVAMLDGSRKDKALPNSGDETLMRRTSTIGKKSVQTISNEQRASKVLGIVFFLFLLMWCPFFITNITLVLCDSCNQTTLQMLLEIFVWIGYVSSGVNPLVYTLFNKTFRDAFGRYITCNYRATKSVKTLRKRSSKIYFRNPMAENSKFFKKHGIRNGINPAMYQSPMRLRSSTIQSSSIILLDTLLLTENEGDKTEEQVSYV

5-HT7 (h) = biological target: T6, 5-HT7 (h) (Homo sapiens, UniProt P34969); test: Competition assay to measure binding affinity at 5-HT7 receptor; settings: test ligand 10 μM; [3H]LSD 4 nM
T6 construct: host or cells: HEK-293 cells
T6 sequence (P34969 whole entry): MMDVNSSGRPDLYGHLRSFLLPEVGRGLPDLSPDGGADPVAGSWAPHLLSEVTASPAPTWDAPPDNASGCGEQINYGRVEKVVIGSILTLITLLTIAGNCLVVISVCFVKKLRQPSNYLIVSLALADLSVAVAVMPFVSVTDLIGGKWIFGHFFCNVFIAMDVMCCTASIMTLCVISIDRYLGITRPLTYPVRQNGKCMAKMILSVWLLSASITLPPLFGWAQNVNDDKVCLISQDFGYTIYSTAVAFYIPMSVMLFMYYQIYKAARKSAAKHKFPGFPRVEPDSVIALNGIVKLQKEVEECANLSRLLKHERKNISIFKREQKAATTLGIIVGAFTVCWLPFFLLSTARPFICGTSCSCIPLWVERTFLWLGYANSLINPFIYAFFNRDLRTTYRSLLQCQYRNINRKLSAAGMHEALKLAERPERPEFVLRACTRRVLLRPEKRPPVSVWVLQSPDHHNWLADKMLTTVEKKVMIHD

alpha2A (h) = biological target: T7, alpha2A (h) (Homo sapiens, UniProt P08913); test: Competition assay to measure binding affinity at alpha2A receptor; settings: test ligand 10 μM, [3H]RX 821002 1 nM; for inhibition at 10 µM: read-out: α-2A, percent of control-specific binding
T7 construct: host or cells: CHO cells
T7 sequence (P08913 1-465): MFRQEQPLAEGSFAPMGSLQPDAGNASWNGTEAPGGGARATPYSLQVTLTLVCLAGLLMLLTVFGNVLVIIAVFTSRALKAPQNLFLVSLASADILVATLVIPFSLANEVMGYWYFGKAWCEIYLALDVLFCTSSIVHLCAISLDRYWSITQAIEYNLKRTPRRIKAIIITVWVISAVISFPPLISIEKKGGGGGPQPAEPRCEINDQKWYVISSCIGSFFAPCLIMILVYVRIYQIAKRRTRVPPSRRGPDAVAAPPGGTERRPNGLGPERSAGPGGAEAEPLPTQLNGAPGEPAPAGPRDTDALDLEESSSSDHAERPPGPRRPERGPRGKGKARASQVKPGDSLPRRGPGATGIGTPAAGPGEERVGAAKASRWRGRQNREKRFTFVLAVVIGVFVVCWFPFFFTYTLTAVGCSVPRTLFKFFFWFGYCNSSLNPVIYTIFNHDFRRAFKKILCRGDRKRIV

D2 (h) = biological target: T8, D2 (h) (Homo sapiens, UniProt P14416); test: Competition assay to measure binding affinity at D2L receptor; settings: test ligand 10 μM; [3H]methylspiperone 0.3 nM
T8 construct: host or cells: HEK-293 cells
T8 sequence (P14416 whole entry): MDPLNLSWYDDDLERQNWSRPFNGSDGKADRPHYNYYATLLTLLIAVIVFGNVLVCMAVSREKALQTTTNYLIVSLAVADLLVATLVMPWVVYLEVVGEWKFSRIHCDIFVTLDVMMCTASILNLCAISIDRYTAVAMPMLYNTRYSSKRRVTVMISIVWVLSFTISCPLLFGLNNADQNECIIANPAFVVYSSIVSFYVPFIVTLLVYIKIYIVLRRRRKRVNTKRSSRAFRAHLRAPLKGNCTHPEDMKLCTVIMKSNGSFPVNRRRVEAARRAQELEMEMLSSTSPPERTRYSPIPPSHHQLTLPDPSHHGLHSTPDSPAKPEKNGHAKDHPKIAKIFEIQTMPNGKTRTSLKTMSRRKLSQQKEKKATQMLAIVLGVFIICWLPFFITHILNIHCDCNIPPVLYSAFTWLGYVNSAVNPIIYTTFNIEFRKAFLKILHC

D3 (h) = biological target: T9, D3 (h) (Homo sapiens, UniProt P35462); test: Competition assay to measure binding affinity at D3 receptor; settings: test ligand 10 μM; [3H]methylspiperone […]
T9 construct: host or cells: CHO cells
T9 sequence (P35462 whole entry): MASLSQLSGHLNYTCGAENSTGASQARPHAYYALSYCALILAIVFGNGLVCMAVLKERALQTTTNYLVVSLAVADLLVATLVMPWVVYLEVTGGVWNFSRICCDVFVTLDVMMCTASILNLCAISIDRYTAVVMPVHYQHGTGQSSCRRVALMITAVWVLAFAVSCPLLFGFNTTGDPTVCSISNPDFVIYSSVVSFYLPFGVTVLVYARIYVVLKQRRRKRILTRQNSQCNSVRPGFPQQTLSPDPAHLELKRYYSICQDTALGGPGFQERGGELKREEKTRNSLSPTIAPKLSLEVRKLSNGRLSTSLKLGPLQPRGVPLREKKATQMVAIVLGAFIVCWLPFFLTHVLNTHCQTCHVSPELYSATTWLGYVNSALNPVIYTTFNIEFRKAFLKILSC

DAT (h) = biological target: T10, DAT (h) (Homo sapiens, UniProt Q01959); test: Competition assay to measure binding affinity at dopamine transporter (DAT); settings: test ligand 10 μM; [3H]BTCP 4 nM
T10 construct: host or cells: CHO cells
T10 sequence (Q01959 whole entry): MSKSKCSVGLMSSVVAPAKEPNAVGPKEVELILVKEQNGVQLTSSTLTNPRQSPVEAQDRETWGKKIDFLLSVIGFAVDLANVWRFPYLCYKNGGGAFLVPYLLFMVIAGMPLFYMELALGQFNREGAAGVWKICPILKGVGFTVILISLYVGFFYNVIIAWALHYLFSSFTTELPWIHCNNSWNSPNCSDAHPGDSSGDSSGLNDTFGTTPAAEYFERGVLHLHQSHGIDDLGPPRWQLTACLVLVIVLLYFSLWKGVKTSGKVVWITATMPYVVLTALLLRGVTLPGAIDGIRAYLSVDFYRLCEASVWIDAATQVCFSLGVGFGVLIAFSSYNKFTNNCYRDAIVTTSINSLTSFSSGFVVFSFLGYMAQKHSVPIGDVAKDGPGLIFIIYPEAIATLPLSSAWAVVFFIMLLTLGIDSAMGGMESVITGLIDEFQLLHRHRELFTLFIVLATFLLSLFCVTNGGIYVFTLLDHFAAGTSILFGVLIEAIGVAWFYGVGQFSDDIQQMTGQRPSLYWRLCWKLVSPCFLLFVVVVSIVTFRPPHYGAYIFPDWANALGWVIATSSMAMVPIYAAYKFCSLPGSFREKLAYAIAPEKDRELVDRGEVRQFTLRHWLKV

MT1 (ML1A) (h) = biological target: T11, MT1 (ML1A) (h) (Homo sapiens, UniProt P48039); test: Competition assay to measure binding affinity at MT1 receptor; settings: test ligand 10 μM; [125I]2-iodomelatonin 0.01 nM
T11 construct: host or cells: CHO cells

NET (h) = biological target: T12, NET (h) (Homo sapiens, UniProt P23975); test: Competition assay to measure binding affinity at norepinephrine transporter (NET); settings: test ligand 10 μM; [3H]nisoxetine 1 nM
T12 construct: host or cells: CHO cells
T12 sequence (P23975 whole entry): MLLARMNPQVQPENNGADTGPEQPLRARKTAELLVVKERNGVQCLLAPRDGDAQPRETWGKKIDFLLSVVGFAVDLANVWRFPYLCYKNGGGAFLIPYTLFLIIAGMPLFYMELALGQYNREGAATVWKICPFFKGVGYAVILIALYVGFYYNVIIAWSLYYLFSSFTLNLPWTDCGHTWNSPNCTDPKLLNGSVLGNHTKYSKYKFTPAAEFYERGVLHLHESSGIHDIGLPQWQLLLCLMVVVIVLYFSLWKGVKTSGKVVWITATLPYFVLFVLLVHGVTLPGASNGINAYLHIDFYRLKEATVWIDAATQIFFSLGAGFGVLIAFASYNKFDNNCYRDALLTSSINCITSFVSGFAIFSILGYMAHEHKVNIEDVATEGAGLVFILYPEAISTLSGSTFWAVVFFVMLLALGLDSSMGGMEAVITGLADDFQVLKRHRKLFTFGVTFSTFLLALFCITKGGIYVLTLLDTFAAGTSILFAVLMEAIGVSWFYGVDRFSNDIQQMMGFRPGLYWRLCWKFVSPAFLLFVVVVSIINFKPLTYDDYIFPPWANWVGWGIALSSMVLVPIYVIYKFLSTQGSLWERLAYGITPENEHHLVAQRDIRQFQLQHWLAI

5-HT2A receptor = 5-HT2A receptor (Homo sapiens, UniProt P28223); test: 5-HT2A receptor radioligand competition assay (SPA)
5-HT2A receptor, sequence (P28223 whole entry): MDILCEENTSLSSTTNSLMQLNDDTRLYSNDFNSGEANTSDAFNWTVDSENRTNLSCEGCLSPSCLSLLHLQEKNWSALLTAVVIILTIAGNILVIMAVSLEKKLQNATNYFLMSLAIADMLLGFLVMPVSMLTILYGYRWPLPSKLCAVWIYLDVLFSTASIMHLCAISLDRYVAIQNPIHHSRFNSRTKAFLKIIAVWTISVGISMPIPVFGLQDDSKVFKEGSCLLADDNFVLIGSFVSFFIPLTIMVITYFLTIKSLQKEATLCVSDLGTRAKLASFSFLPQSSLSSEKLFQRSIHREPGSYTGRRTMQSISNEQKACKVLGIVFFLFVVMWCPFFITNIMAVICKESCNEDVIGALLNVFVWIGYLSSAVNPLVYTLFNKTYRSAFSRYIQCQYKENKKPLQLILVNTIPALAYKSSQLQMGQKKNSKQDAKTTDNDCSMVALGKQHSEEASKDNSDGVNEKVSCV

5-HT2C (h) = biological target: T13, 5-HT2C (h) (Homo sapiens, UniProt P28335); test: Competition assay to measure binding affinity at 5-HT2C receptor; settings: test ligand 10 μM; [125I](±)DOI 0.1 nM
T13 construct: host or cells: HEK-293 cells
T13 sequence (P28335 33-458): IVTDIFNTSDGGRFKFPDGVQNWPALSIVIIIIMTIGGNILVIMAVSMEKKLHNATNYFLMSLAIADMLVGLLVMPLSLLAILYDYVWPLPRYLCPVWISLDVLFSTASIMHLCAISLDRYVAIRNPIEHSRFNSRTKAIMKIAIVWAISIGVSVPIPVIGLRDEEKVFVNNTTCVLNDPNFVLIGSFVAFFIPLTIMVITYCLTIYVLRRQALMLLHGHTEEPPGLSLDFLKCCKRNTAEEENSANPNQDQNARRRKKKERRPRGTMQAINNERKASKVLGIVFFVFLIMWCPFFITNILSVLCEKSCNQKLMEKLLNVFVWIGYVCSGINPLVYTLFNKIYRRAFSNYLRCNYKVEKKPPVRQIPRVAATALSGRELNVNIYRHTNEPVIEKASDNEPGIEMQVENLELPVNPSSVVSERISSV

SMILES: COc1cc(CCN)c(OC)cc1Br [2C-B, reference compound]
- Ki (5-HT1A receptor [1]): 0.2 µM
- 5-HT1A receptor engagement (change in cAMP levels), in words (5-HT1A receptor [2]): reduction in cAMP levels
- EC50 (5-HT1A receptor [2]; reduction of cAMP in +5-HT1A cells stimulated with 4 μM forskolin, 20 min, read-out: 5-HT1A, EC50): 5.95 µM
- SERT binding, binding curve in words [3]: bind SERT to varying degrees
- Ki ([3]; read-out: SERT, Ki): 11.4 µM
- HT1B, percent of control-specific binding (5-HT1B (h)): 77%
- HT1D, percent of control-specific binding (5-HT1D (r)): 100%
- HT2B, percent of control-specific binding (5-HT2B (h)): 99%
- HT7, percent of control-specific binding (5-HT7 (h)): 88%
- α-2A, percent of control-specific binding (alpha2A (h)): 88%
- D2, percent of control-specific binding (D2 (h)): 42%
- D3, percent of control-specific binding (D3 (h)): 43%
- DAT, percent of control-specific binding (DAT (h)): 5%
- MT1, percent of control-specific binding (MT1 (ML1A) (h)): 86%
- NET, percent of control-specific binding (NET (h)): 13%
- Ki (5-HT2A receptor; read-out: 5-HT2A, Ki, competition with 1 nM [3H]ketanserin, test compound 3 nM to 1 mM): 0.414 µM

SMILES: COc1cc2c(cc1CCN1CCCC1)OCO2 [A(XIV)]
- Ki (5-HT1A receptor [1]): 0.0462 µM
- EC50 (5-HT1A receptor [2]): 1.17 µM
- 5-HT1A receptor engagement (change in cAMP levels), in words (5-HT1A receptor [2]): receptor modulation at evaluated ligand concentrations
- Ki [3]: 23.2 µM
- HT1B, percent of control-specific binding (5-HT1B (h)): 7%
- HT1D, percent of control-specific binding (5-HT1D (r)): 28%
- HT2B, percent of control-specific binding (5-HT2B (h)): 63%
- HT2C, percent of control-specific binding (5-HT2C (h)): 90%
- HT7, percent of control-specific binding (5-HT7 (h)): 75%
- inhibition at 10 µM (alpha2A (h)): 54%
- D2, percent of control-specific binding (D2 (h)): 12%
- D3, percent of control-specific binding (D3 (h)): 46%
- DAT, percent of control-specific binding (DAT (h)): 0%
- MT1, percent of control-specific binding (MT1 (ML1A) (h)): 7%
- NET, percent of control-specific binding (NET (h)): 0%
- Ki (5-HT2A receptor): 11 µM

SMILES: COc1cc2c(cc1CCNCCO)OCO2 [A(XXIV)]
- Ki (5-HT1A receptor [1]): 0.993 µM
- EC50 (5-HT1A receptor [2]): 32.3 µM
- Ki [3]: 52.2 µM
- HT1B, percent of control-specific binding (5-HT1B (h)): 0%
- HT1D, percent of control-specific binding (5-HT1D (r)): 29%
- HT2B, percent of control-specific binding (5-HT2B (h)): 43%
- HT2C, percent of control-specific binding (5-HT2C (h)): 76%
- HT7, percent of control-specific binding (5-HT7 (h)): 35%
- inhibition at 10 µM (alpha2A (h)): 11%
- D2, percent of control-specific binding (D2 (h)): 7%
- D3, percent of control-specific binding (D3 (h)): 13%
- DAT, percent of control-specific binding (DAT (h)): 5%
- MT1, percent of control-specific binding (MT1 (ML1A) (h)): 0%
- NET, percent of control-specific binding (NET (h)): 0%
- Ki (5-HT2A receptor): 26 µM

SMILES: c1cc(CCN2CCCC2)c2c(c1)OCO2 [A(XXIX)]
- Ki (5-HT1A receptor [1]): 0.0132 µM
- EC50 (5-HT1A receptor [2]): 0.352 µM
- Ki [3]: 10.1 µM
- HT1B, percent of control-specific binding (5-HT1B (h)): 3%
- HT1D, percent of control-specific binding (5-HT1D (r)): 44%
- HT2B, percent of control-specific binding (5-HT2B (h)): 48%
- HT2C, percent of control-specific binding (5-HT2C (h)): 87%
- HT7, percent of control-specific binding (5-HT7 (h)): 48%
- inhibition at 10 µM (alpha2A (h)): 57%
- D2, percent of control-specific binding (D2 (h)): 0%
- D3, percent of control-specific binding (D3 (h)): 22%
- DAT, percent of control-specific binding (DAT (h)): 49%
- MT1, percent of control-specific binding (MT1 (ML1A) (h)): 1%
- NET, percent of control-specific binding (NET (h)): 2%
- Ki (5-HT2A receptor): 8 µM

SMILES: Brc1cc2c(cc1CCN1CCCC1)OCO2 [A(XXV)]
- Ki (5-HT1A receptor [1]): 0.0635 µM
- EC50 (5-HT1A receptor [2]): 0.342 µM
- Ki [3]: 10.9 µM
- HT1B, percent of control-specific binding (5-HT1B (h)): 0%
- HT1D, percent of control-specific binding (5-HT1D (r)): 30%
- HT2B, percent of control-specific binding (5-HT2B (h)): 76%
- HT2C, percent of control-specific binding (5-HT2C (h)): 87%
- HT7, percent of control-specific binding (5-HT7 (h)): 71%
- inhibition at 10 µM (alpha2A (h)): 61%
- D2, percent of control-specific binding (D2 (h)): 21%
- D3, percent of control-specific binding (D3 (h)): 70%
- DAT, percent of control-specific binding (DAT (h)): 11%
- MT1, percent of control-specific binding (MT1 (ML1A) (h)): 1%
- NET, percent of control-specific binding (NET (h)): 28%
- Ki (5-HT2A receptor): 7.65 µM

SMILES: COc1cc(CCN)cc(OC)c1OC [mescaline, 3,4,5 trimethoxyphenethylamine]
- 5-HT1A receptor engagement (change in cAMP levels), in words (5-HT1A receptor [2]): no
- Ki [3]: 406 µM
- SERT binding, binding curve in words [3]: SERT binding at higher ligand concentrations
- HT1B, percent of control-specific binding (5-HT1B (h)): 11%
- HT1D, percent of control-specific binding (5-HT1D (r)): 70%
- HT2B, percent of control-specific binding (5-HT2B (h)): 80%
- HT2C, percent of control-specific binding (5-HT2C (h)): 95%
- inhibition at 10 µM (alpha2A (h)): 57%
- D2, percent of control-specific binding (D2 (h)): 3%
- D3, percent of control-specific binding (D3 (h)): −13%
- DAT, percent of control-specific binding (DAT (h)): −1%
- MT1, percent of control-specific binding (MT1 (ML1A) (h)): 6%
- NET, percent of control-specific binding (NET (h)): −9%
